ChEMBL document CHEMBL3797052 (Eur J Med Chem, 2016)

Legend:
CYP2D6 = CYP2D6 (Homo sapiens, UniProt P10635); assay: Inhibition of recombinant human CYP2D6 assessed as remaining enzyme activity using CYP2D6 blue as substrate at 10 uM after 5 mins in presence of NADP by fluorescence plate reader analysis; format: ADME; details: recombinant human CYP2D6, probe CYP2D6 blue, read-out: Activity
SR = assay: Antiproliferative activity against human SR cells assessed as cell growth at 10^-7 M after 48 hrs by sulforhodamine B assay; format: functional; details: read-out: Activity
NCI-H322M [1] = assay: Antiproliferative activity against human NCI-H322M cells assessed as cell growth at 10^-7 M after 48 hrs by sulforhodamine B assay; format: functional; details: read-out: Activity
[2] = Antiproliferative activity against human HCT15 cells assessed as cell growth at 10^-7 M after 48 hrs by sulforhodamine B assay; format: functional; details: HCT-15, 48 h, read-out: Activity
[3] = Antiproliferative activity against human SNB19 cells assessed as cell growth at 10^-7 M after 48 hrs by sulforhodamine B assay; format: functional; details: SNB-19, 48 h, read-out: Activity
MDA-MB-468 [4] = assay: Antiproliferative activity against human MDA-MB-468 cells assessed as cell growth at 10^-4 M after 48 hrs by sulforhodamine B assay; format: functional; details: MDA-MB-468, 48 h, read-out: Activity
SK-MEL-2 [5] = assay: Antiproliferative activity against human SK-MEL-2 cells assessed as growth inhibition after 48 hrs by sulforhodamine B assay; format: functional; details: SK-MEL-2, 48 h
MDA-MB-435 = assay: Antiproliferative activity against human MDA-MB-435 cells assessed as growth inhibition after 48 hrs by sulforhodamine B assay; format: functional; details: MDA-MB-435, 48 h
[6] = Antiproliferative activity against human UACC62 cells assessed as cell growth at 10^-7 M after 48 hrs by sulforhodamine B assay; format: functional; details: UACC-62, 48 h, read-out: Activity
[7] = Antiproliferative activity against human OVCAR3 cells assessed as cell growth at 10^-7 M after 48 hrs by sulforhodamine B assay; format: functional; details: OVCAR-3, 48 h, read-out: Activity
A498 [8] = assay: Antiproliferative activity against human A498 cells assessed as cell growth at 10^-7 M after 48 hrs by sulforhodamine B assay; format: functional; details: A498, 48 h, read-out: Activity
[9] = Antiproliferative activity against human Caki1 cells assessed as cell growth at 10^-7 M after 48 hrs by sulforhodamine B assay; format: functional; details: CAKI-1, 48 h, read-out: Activity
[10] = Antiproliferative activity against human RPMI8226 cells assessed as growth inhibition after 48 hrs by sulforhodamine B assay; format: functional; details: RPMI-8226, 48 h
MDA-MB-231 [11] = assay: Antiproliferative activity against human MDA-MB-231 cells assessed as growth inhibition after 48 hrs by sulforhodamine B assay; format: functional; details: MDA-MB-231, 48 h
MDA-MB-468 [12] = assay: Antiproliferative activity against human MDA-MB-468 cells assessed as growth inhibition after 48 hrs by sulforhodamine B assay; format: functional; details: MDA-MB-468, 48 h
[13] = biological target: RAF proto-oncogene serine/threonine-protein kinase (Homo sapiens, UniProt P04049); assay: Inhibition of human C-RAF measured after 40 mins by scintillation counting
Chain of RAF proto-oncogene serine/threonine-protein kinase (P04049 whole entry): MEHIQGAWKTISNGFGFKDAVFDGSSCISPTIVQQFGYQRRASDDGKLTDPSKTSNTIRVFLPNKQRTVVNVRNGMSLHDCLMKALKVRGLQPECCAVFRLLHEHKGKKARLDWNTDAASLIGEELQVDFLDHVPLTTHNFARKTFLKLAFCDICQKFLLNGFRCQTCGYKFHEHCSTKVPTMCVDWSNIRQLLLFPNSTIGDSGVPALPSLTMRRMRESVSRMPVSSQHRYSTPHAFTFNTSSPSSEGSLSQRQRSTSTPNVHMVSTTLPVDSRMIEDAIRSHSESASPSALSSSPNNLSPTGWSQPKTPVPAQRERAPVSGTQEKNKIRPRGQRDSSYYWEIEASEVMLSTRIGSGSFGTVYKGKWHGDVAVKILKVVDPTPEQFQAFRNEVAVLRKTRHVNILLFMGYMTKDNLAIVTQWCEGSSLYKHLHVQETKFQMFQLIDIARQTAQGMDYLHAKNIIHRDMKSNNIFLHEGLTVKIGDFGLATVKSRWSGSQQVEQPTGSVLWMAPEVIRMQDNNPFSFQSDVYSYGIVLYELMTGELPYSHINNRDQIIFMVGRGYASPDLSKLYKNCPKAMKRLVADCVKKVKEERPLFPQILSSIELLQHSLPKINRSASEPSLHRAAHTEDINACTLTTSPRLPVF

CYP3A4 = CYP3A4 (Homo sapiens, UniProt P08684); assay: Inhibition of recombinant human CYP3A4 assessed as remaining enzyme activity using CYP3A4 blue as substrate at 10 uM after 5 mins in presence of NADP by fluorescence plate reader analysis; format: ADME; details: recombinant human CYP3A4, probe CYP3A4 blue, read-out: Activity
Chain of CYP3A4 (P08684 whole entry): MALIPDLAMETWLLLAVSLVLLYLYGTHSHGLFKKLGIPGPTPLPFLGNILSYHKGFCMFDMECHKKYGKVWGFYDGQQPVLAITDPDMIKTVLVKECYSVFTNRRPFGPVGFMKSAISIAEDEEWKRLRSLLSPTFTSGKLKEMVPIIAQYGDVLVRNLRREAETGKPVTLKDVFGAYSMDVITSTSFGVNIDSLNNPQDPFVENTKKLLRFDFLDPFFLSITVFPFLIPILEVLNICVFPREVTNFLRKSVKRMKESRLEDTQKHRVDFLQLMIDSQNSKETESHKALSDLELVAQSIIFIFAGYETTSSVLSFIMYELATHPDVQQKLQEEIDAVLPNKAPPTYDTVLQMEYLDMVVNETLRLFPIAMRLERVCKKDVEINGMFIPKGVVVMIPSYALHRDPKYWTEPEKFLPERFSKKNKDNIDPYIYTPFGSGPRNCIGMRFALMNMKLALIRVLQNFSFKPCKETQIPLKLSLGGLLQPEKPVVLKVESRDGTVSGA

[14] = Antiproliferative activity against human HCT116 cells assessed as cell growth at 10^-8 M after 48 hrs by sulforhodamine B assay; format: functional; details: HCT-116, 48 h, read-out: Activity
KM12 = assay: Antiproliferative activity against human KM12 cells assessed as cell growth at 10^-8 M after 48 hrs by sulforhodamine B assay; format: functional; details: KM12, 48 h, read-out: Activity
CCRF-CEM = assay: Antiproliferative activity against human CCRF-CEM cells assessed as cell growth at 10^-6 M after 48 hrs by sulforhodamine B assay; format: functional; details: read-out: Activity
NCI-H23 = assay: Antiproliferative activity against human NCI-H23 cells assessed as cell growth at 10^-6 M after 48 hrs by sulforhodamine B assay; format: functional; details: NCI-H23, 48 h, read-out: Activity
[15] = Antiproliferative activity against human SNB19 cells assessed as cell growth at 10^-6 M after 48 hrs by sulforhodamine B assay; format: functional; details: SNB-19, 48 h, read-out: Activity
[16] = Antiproliferative activity against human SNB75 cells assessed as cell growth at 10^-6 M after 48 hrs by sulforhodamine B assay; format: functional; details: SNB-75, 48 h, read-out: Activity
K562 = assay: Antiproliferative activity against human K562 cells assessed as cell growth at 10^-4 M after 48 hrs by sulforhodamine B assay; format: functional; details: K562, 48 h, read-out: Activity
[17] = Antiproliferative activity against human MOLT4 cells assessed as cell growth at 10^-4 M after 48 hrs by sulforhodamine B assay; format: functional; details: MOLT-4, 48 h, read-out: Activity
NCI-H322M [18] = assay: Antiproliferative activity against human NCI-H322M cells assessed as cell growth at 10^-4 M after 48 hrs by sulforhodamine B assay; format: functional; details: read-out: Activity
[19] = Antiproliferative activity against human SNB75 cells assessed as cell growth at 10^-4 M after 48 hrs by sulforhodamine B assay; format: functional; details: SNB-75, 48 h, read-out: Activity
A498 [20] = assay: Antiproliferative activity against human A498 cells assessed as cell growth at 10^-8 M after 48 hrs by sulforhodamine B assay; format: functional; details: A498, 48 h, read-out: Activity
MDA-MB-231 [21] = assay: Antiproliferative activity against human MDA-MB-231 cells assessed as cell growth at 10^-8 M after 48 hrs by sulforhodamine B assay; format: functional; details: MDA-MB-231, 48 h, read-out: Activity
SK-MEL-2 [22] = assay: Antiproliferative activity against human SK-MEL-2 cells assessed as cell growth at 10^-6 M after 48 hrs by sulforhodamine B assay; format: functional; details: SK-MEL-2, 48 h, read-out: Activity
A498 [23] = assay: Antiproliferative activity against human A498 cells assessed as cell growth at 10^-6 M after 48 hrs by sulforhodamine B assay; format: functional; details: A498, 48 h, read-out: Activity
[24] = Antiproliferative activity against human Hs 578T cells assessed as cell growth at 10^-6 M after 48 hrs by sulforhodamine B assay; format: functional; details: read-out: Activity
[25] = Antiproliferative activity against human NCI-ADR-RES cells assessed as cell growth at 10^-4 M after 48 hrs by sulforhodamine B assay; format: functional; details: read-out: Activity
786-0 = assay: Antiproliferative activity against human 786-0 cells assessed as cell growth at […] after 48 hrs by sulforhodamine B assay; format: functional; details: 786-0, 48 h, read-out: Activity
[26] = read-out: LC50 (the source's name)

Chain of CYP2D6 (P10635 whole entry): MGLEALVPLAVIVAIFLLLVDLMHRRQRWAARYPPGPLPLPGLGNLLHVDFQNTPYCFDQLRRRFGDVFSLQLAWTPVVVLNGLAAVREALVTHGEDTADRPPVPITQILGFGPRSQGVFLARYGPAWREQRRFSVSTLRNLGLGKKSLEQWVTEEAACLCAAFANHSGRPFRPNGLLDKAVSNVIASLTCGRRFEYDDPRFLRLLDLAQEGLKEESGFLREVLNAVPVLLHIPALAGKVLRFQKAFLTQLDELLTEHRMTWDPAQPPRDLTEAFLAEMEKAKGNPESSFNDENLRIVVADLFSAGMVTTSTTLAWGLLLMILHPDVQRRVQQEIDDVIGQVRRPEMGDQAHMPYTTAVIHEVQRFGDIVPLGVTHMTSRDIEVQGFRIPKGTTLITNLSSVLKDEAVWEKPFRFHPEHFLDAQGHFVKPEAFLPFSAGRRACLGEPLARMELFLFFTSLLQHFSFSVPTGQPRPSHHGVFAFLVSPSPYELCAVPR

**Q.** Which results are given for `CNC(=O)c1cc(Oc2ccc3nc(NC(=O)Nc4ccc(Cl)c(Cl)c4)sc3c2)ccn1`?
**A.** activity at 5 min, 10 µM (CYP2D6): 96.4%; growth at 0.1 µM (SR): 105%; growth at 0.1 µM (NCI-H322M [1]): 87%; growth at 0.1 µM [2]: 97%; growth at 0.1 µM [3]: 110%; growth at 100 µM (MDA-MB-468 [4]): -44%; GI50 (SK-MEL-2 [5]): 2.56 µM; TGI (SK-MEL-2 [5]): 5.97 µM; CC50 (SK-MEL-2 [5]; [26]): > 100 µM; GI50 (MDA-MB-435): 2.02 µM; TGI (MDA-MB-435): 4.62 µM; CC50 (MDA-MB-435; [26]): > 100 µM; growth at 0.1 µM [6]: 95%; growth at 0.1 µM [7]: 102%; growth at 0.1 µM (A498 [8]): 110%; growth at 0.1 µM [9]: 99%; GI50 [10]: 3.66 µM; LC50 [10]: > 100 µM; TGI [10]: > 100 µM; GI50 (MDA-MB-231 [11]): 2.15 µM; TGI (MDA-MB-231 [11]): 6.43 µM; CC50 (MDA-MB-231 [11]; [26]): > 100 µM; GI50 (MDA-MB-468 [12]): 1.97 µM; TGI (MDA-MB-468 [12]): 5.09 µM; CC50 (MDA-MB-468 [12]; [26]): > 100 µM; IC50 [13]: 0.015 µM; activity at 5 min, 10 µM (CYP3A4): 104%; growth at 0.01 µM [14]: 94%; growth at 0.01 µM (KM12): 98%; growth at 1 µM (CCRF-CEM): 100%; growth at 1 µM (NCI-H23): 88%; growth at 1 µM [15]: 100%; growth at 1 µM [16]: 87%; growth at 100 µM (K562): 53%; growth at 100 µM [17]: 78%; growth at 100 µM (NCI-H322M [18]): 4%; growth at 100 µM [19]: -75%; growth at 0.01 µM (A498 [20]): 101%; growth at 0.01 µM (MDA-MB-231 [21]): 89%; growth at 1 µM (SK-MEL-2 [22]): 105%; growth at 1 µM (A498 [23]): 115%; growth at 1 µM [24]: 108%; growth at 100 µM [25]: -49%; growth at 100 µM (786-0): -67%
